For this assay, the target named is T1, His-tagged recombinant human TrkA (Homo sapiens, UniProt P04629).
T1 construct: 6HIS tagged cytoplasmic domain from Invitrogen, Catalog No. PV3144; purchased Invitrogen PV3144
In words: TrkA Kinase Binding Assay (LanthaScreen Eu). The following applies: averaged IC50; TR-FRET binding, 60 min, 22° C.; read-out: TrkA Enzyme IC50. The procedure:
TrkA binding activity was determined in a TrkA LanthaScreen™ Eu Kinase Binding Assay. 5 nM His-tagged recombinant human TrkA (6HIS tagged cytoplasmic domain from Invitrogen, Catalog No. PV3144) was incubated with 4 nM Alexa-Fluor® Tracer 236 (Invitrogen Cat. No. PV5592), 2 nM biotinylated anti-His (Invitrogen Cat. No. PV6090), and 2 nM europium-labeled Streptavidin (Invitrogen Cat. No. PV5899), in buffer (25 mM MOPS, pH 7.5, 5 mM MgCl2, 0.005% Triton X-100). Three fold serial dilutions of compounds of the invention in DMSO were added to a final percentage of 2% DMSO. After 60-minute incubation at 22° C., the reaction was measured using the EnVision mutlimode plate reader (PerkinElmer) via TR-FRET dual wavelength detection at […]. The percent of control was calculated using a ratiometric emission factor. The IC50 values were determined by fitting a four parameter model to the percent of control data.
Table A provides averaged IC50 values for compounds of the invention when tested in the assay of Example A, where A represents an averaged IC50 value <100 nM; B represents an averaged IC50 value from 100 to 1,000 nM; and C represents an average 1050 value above 1000 nM.
(Time-resolved FRET reads energy transfer from a long-lived donor to a nearby acceptor.)

Where only a bound is given, the exact number is not on record here.

T1 sequence (P04629 440-796 limits assumed): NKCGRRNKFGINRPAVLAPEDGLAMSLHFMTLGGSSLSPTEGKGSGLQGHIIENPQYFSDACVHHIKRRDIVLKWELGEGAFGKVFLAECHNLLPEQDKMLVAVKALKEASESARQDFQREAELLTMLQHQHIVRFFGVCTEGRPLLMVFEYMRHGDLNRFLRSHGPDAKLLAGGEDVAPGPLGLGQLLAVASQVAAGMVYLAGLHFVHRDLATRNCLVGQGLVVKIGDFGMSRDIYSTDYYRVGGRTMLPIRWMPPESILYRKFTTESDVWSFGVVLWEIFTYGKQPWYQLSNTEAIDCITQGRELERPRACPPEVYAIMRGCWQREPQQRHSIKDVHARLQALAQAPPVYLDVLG

With `COCc1ccc(OC(F)F)c(CNC(=O)Nc2c(C)c(-c3cnc(OC)nc3)nn2-c2ccccc2)c1` [Example 62, 1-(2-(difluoromethoxy)-5-(methoxymethyl)benzyl)-3-(3-(2-methoxypyrimidin-5-yl)-4-methyl-1-phenyl-1H-pyrazol-5-yl)urea], the IC50 (in general, the concentration at which inhibition is half-maximal) was under 100 nM.
Next, `COCc1ccc(OC(F)(F)F)c(CNC(=O)Nc2c(C)c(OCCO)nn2-c2ccccc2)c1` [Example 63, 1-(3-(2-hydroxyethoxy)-4-methyl-1-phenyl-1H-pyrazol-5-yl)-3-(5-(methoxymethyl)-2-(trifluoromethoxy)benzyl)urea]: under 100 nM; `CNC(=O)c1nn(-c2ccccc2)c(NC(=O)NCc2cc(Br)ccc2OC(F)(F)F)c1C` [Example 64, 5-(3-(5-bromo-2-(trifluoromethoxy)benzyl)ureido)-N,4-dimethyl-1-phenyl-1H-pyrazole-3-carboxamide]: under 100 nM.
Next, `COCc1ccc(OC(F)(F)F)c(CNC(=O)Nc2c(C)c(OC[C@H](O)CO)nn2-c2ccccc2)c1` [Example 65, (R)-1-(3-(2,3-dihydroxypropoxy)-4-methyl-1-phenyl-1H-pyrazol-5-yl)-3-(5-(methoxymethyl)-2-(trifluoromethoxy)benzyl)urea]: under 100 nM; `COCc1ccc(OC(F)(F)F)c(CNC(=O)Nc2c(C)c(C3CCNCC3)nn2-c2ccccc2)c1` [Example 66, 1-(5-(methoxymethyl)-2-(trifluoromethoxy)benzyl)-3-(4-methyl-1-phenyl-3-(piperidin-4-yl)-1H-pyrazol-5-yl)urea]: under 100 nM; `COCc1ccc(OC(F)(F)F)c(CNC(=O)Nc2c(C)c(OCC3CCNCC3)nn2-c2ccccc2)c1` [Example 67, 1-(5-(methoxymethyl)-2-(trifluoromethoxy)benzyl)-3-(4-methyl-1-phenyl-3-(piperidin-4-ylmethoxy)-1H-pyrazol-5-yl)urea]: under 100 nM.
For the compound `CNC(=O)c1nn(-c2ccccc2)c(NC(=O)NCc2cc(COC)ccc2OCC(F)(F)F)c1C` [Example 68, 5-(3-(5-(methoxymethyl)-2-(2,2,2-trifluoroethoxy)benzyl)ureido)-N,4-dimethyl-1-phenyl-1H-pyrazole-3-carboxamide], the IC50 lay in the range of 100 to 1000 nM.
On to `COCc1ccc(OCC(F)(F)F)c(CNC(=O)Nc2c(C)c(-c3cnc(OC)nc3)nn2-c2ccccc2)c1` [Example 69, 1-(5-(methoxymethyl)-2-(2,2,2-trifluoroethoxy)benzyl)-3-(3-(2-methoxypyrimidin-5-yl)-4-methyl-1-phenyl-1H-pyrazol-5-yl)urea], for which the IC50 is under 100 nM.
On to `COCc1ccc(OC(F)(F)F)c(CNC(=O)Nc2c(C)c(OCC3(F)CCNCC3)nn2-c2ccccc2)c1` [Example 70, 1-(3-((4-fluoropiperidin-4-yl)methoxy)-4-methyl-1-phenyl-1H-pyrazol-5-yl)-3-(5-(methoxymethyl)-2-(trifluoromethoxy)benzyl)urea], for which the IC50 was under 100 nM.
`COCc1ccc(OC(F)(F)F)c(CNC(=O)Nc2c(C)c(OCC3CCNC3)nn2-c2ccccc2)c1` (stereo not drawn) [Example 71]: the IC50 was under 100 nM.
For the compound `COCc1ccc(OC(F)(F)F)c(CNC(=O)Nc2c(C)c(OCC3CNC3)nn2-c2ccccc2)c1` [Example 72, 1-(3-(azetidin-3-ylmethoxy)-4-methyl-1-phenyl-1H-pyrazol-5-yl)-3-(5-(methoxymethyl)-2-(trifluoromethoxy)benzyl)urea], the IC50 is under 100 nM.
For `COCc1ccc(OC(F)(F)F)c(CNC(=O)Nc2c(C)c(OCC3(F)CCNC3)nn2-c2ccccc2)c1` (stereo not drawn) [Example 73, 1-(3-((3-fluoropyrrolidin-3-yl)methoxy)-4-methyl-1-phenyl-1H-pyrazol-5-yl)-3-(5-(methoxymethyl)-2-(trifluoromethoxy)benzyl)urea], the IC50 is under 100 nM.
Take `COCc1ccc(OC(F)(F)F)c(CNC(=O)Nc2c(C)c(-c3cc(C)c(=O)n(C)c3)nn2-c2ccccc2)c1` [Example 74, 1-(3-(1,5-dimethyl-6-oxo-1,6-dihydropyridin-3-yl)-4-methyl-1-phenyl-1H-pyrazol-5-yl)-3-(5-(methoxymethyl)-2-(trifluoromethoxy)benzyl)urea]: the IC50 is under 100 nM.
With `COCc1ccc(OC(F)(F)F)c(CNC(=O)Nc2c(C)c(OCC3CN(C)C3)nn2-c2ccccc2)c1` [Example 75, 1-(5-(methoxymethyl)-2-(trifluoromethoxy)benzyl)-3-(4-methyl-3-((1-methylazetidin-3-yl)methoxy)-1-phenyl-1H-pyrazol-5-yl)urea], the IC50 is under 100 nM.
Consider `COCc1ccc(OC(F)(F)F)c(CNC(=O)Nc2c(C)c(OCC3(F)CCN(C)C3)nn2-c2ccccc2)c1` (stereo not drawn) [Example 76, 1-(3-((3-fluoro-1-methylpyrrolidin-3-yl)methoxy)-4-methyl-1-phenyl-1H-pyrazol-5-yl)-3-(5-(methoxymethyl)-2-(trifluoromethoxy)benzyl)urea], for which the concentration for half-maximal inhibition (IC50) is under 100 nM.
As for `COCc1ccc(OC(F)(F)F)c(CNC(=O)Nc2c(C)c(Oc3ccccc3)nn2-c2ccccc2)c1` [Example 77, 1-(5-(methoxymethyl)-2-(trifluoromethoxy)benzyl)-3-(4-methyl-3-phenoxy-1-phenyl-1H-pyrazol-5-yl)urea], the IC50 lay in the range of 100 to 1000 nM.
Next, `COCc1ccc(OC(F)(F)F)c(CNC(=O)Nc2c(C)c(OC3CCNCC3)nn2-c2ccccc2)c1` [Example 78, 1-(5-(methoxymethyl)-2-(trifluoromethoxy)benzyl)-3-(4-methyl-1-phenyl-3-(piperidin-4-yloxy)-1H-pyrazol-5-yl)urea]: under 100 nM.
On to `COCc1ccc(OC(F)(F)F)c(CNC(=O)Nc2c(C)c(OC3CC4(CNC4)C3)nn2-c2ccccc2)c1` [Example 79, 1-(3-(2-azaspiro[3.3]heptan-6-yloxy)-4-methyl-1-phenyl-1H-pyrazol-5-yl)-3-(5-(methoxymethyl)-2-(trifluoromethoxy)benzyl)urea], for which the IC50 was under 100 nM.
As for `COCc1ccc(OC(F)(F)F)c(CNC(=O)Nc2c(C)c(O[C@H]3CNC[C@H]3F)nn2-c2ccccc2)c1` [Example 80, 1-(3-(((3S,4R)-4-fluoropyrrolidin-3-yl)oxy)-4-methyl-1-phenyl-1H-pyrazol-5-yl)-3-(5-(methoxymethyl)-2-(trifluoromethoxy)benzyl)urea], the IC50 is under 100 nM.
In the case of `COCc1ccc(OC(F)(F)F)c(CNC(=O)Nc2c(C)c(O[C@H]3CN(C)C[C@H]3F)nn2-c2ccccc2)c1` [Example 81, 1-(3-(((3S,4R)-4-fluoro-1-methylpyrrolidin-3-yl)oxy)-4-methyl-1-phenyl-1H-pyrazol-5-yl)-3-(5-(methoxymethyl)-2-(trifluoromethoxy)benzyl)urea], the IC50 is under 100 nM.
For `COCc1ccc(OC(F)(F)F)c(CNC(=O)Nc2c(C)c(O[C@@H]3CCN(C)C3)nn2-c2ccccc2)c1` [Example 82, (R)-1-(5-(methoxymethyl)-2-(trifluoromethoxy)benzyl)-3-(4-methyl-3-((1-methylpyrrolidin-3-yl)oxy)-1-phenyl-1H-pyrazol-5-yl)urea], the IC50 is under 100 nM.
As for `COCc1ccc(OC(F)(F)F)c(CNC(=O)Nc2c(C)c(O[C@H]3CCNC3)nn2-c2ccccc2)c1` [Example 83, (S)-1-(5-(methoxymethyl)-2-(trifluoromethoxy)benzyl)-3-(4-methyl-1-phenyl-3-(pyrrolidin-3-yloxy)-1H-pyrazol-5-yl)urea], the IC50 is under 100 nM.
Turning to `COCc1ccc(OC(F)(F)F)c(CNC(=O)Nc2c(C)c(O[C@@H]3CCNC3)nn2-c2ccccc2)c1` [Example 84, (R)-1-(5-(methoxymethyl)-2-(trifluoromethoxy)benzyl)-3-(4-methyl-1-phenyl-3-(pyrrolidin-3-yloxy)-1H-pyrazol-5-yl)urea], the IC50 was under 100 nM.
With `COCc1ccc(OC(F)(F)F)c(CNC(=O)Nc2c(C)c(OC3CC4(C3)CN(C)C4)nn2-c2ccccc2)c1` [Example 85, 1-(5-(methoxymethyl)-2-(trifluoromethoxy)benzyl)-3-(4-methyl-3-((2-methyl-2-azaspiro[3.3]heptan-6-yl)oxy)-1-phenyl-1H-pyrazol-5-yl)urea], the IC50 is under 100 nM.
For the compound `COCc1ccc(OC(F)(F)F)c(CNC(=O)Nc2c(C)c(OCC3(F)CNC3)nn2-c2ccccc2)c1` [Example 86, 1-(3-((3-fluoroazetidin-3-yl)methoxy)-4-methyl-1-phenyl-1H-pyrazol-5-yl)-3-(5-(methoxymethyl)-2-(trifluoromethoxy)benzyl)urea], the IC50 was under 100 nM.
Next, `COCc1ccc(OC(F)(F)F)c(CNC(=O)Nc2c(C)c(OC[C@@H]3CCNC[C@H]3F)nn2-c2ccccc2)c1` [Example 87, 1-(3-(((3S,4S)-3-fluoropiperidin-4-yl)methoxy)-4-methyl-1-phenyl-1H-pyrazol-5-yl)-3-(5-(methoxymethyl)-2-(trifluoromethoxy)benzyl)urea]: under 100 nM; `COCc1ccc(OC(F)(F)F)c(CNC(=O)Nc2c(C)c(OC[C@H]3CCNC[C@H]3F)nn2-c2ccccc2)c1` [Example 88, 1-(3-(((3S,4R)-3-fluoropiperidin-4-yl)methoxy)-4-methyl-1-phenyl-1H-1-pyrazol-5-yl)-3-(5-(methoxymethyl)-2-(trifluoromethoxy)benzyl)urea 2,2,2-trifluoroacetate]: under 100 nM.

The values above are taken from patent US9969694B2, “N-(arylalkyl)-N′-pyrazolyl-urea, thiourea, guanidine and cyanoguanidine compounds as TrkA kinase inhibitors” (Array BioPharma Inc., priority 2012, dated 2018).
